{"source": "paper PMC3735122", "about": "(mBio, 2013)", "origin": "cited, not measured here", "system": "seasonal H3N2 isolates with R292K NA mutation", "conditions": "cited from earlier work"}
{"smiles": "CCC(CC)[C@H](NC(C)=O)[C@@H]1[C@H](O)[C@@H](C(=O)O)C[C@H]1N=C(N)N", "note": "[peramivir]", "values": [{"measurement": "sensitivity of seasonal H3N2 isolates with R292K mutation", "value": "intermediate resistance"}]}
{"smiles": "CC(=O)N[C@H]1[C@H]([C@H](O)[C@H](O)CO)OC(C(=O)O)=C[C@@H]1N=C(N)N", "note": "[zanamivir]", "values": [{"measurement": "sensitivity of seasonal H3N2 isolates with R292K mutation", "value": "slightly reduced sensitivity"}]}
{"smiles": "CCC(CC)O[C@@H]1C=C(C(=O)O)C[C@H](N)[C@H]1NC(C)=O", "note": "[oseltamivir carboxylate]", "values": [{"measurement": "sensitivity of seasonal H3N2 isolates with R292K mutation", "value": "significantly reduced sensitivity"}]}
